According to US8124778B2, “Tricyclic inhibitors of fatty acid amide hydrolase” (The Scripps Research Institute, priority 2007, dated 2012):

Legend:
KIAA1363 = target: T1, KIAA1363 (Mus musculus, UniProt Q8BLF1); experiment: Proteome-wide selectivity screening, KIAA1363; assay type: biochemical; details: IC50 based
T1 construct: from tissue
T1 sequence (Q8BLF1 1-408): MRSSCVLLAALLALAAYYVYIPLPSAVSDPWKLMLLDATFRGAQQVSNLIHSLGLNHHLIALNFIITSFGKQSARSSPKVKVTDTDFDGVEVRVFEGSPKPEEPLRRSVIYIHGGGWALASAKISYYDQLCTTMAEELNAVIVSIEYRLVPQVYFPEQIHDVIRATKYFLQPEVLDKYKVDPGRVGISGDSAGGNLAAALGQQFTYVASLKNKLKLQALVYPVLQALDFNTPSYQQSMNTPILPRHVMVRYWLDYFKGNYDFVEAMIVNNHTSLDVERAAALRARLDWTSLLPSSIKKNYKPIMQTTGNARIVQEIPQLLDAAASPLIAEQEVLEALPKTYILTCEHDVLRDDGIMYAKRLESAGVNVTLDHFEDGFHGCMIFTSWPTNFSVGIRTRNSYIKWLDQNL
Description: (§1) The present invention concerns the synthesis and evaluation of a systematic series of α-keto oxazole inhibitors having variations at the C2 acyl side chain along with results of the proteome-wide selectivity screening of the candidate inhibitors. The screening protocol is described by Leung, D.; Hardouin, C.; et al. Nature Biotech. 2003, 21, 687-691.
(§2) Selectivity Screening. […] Consequently a method for proteomic-wide screening capable of globally profiling all mammalian serine hydrolases was developed (Leung, D.; Hardouin, C.; et al. Nature Biotech. 2003, 21, 687-691) and studies have shown that the α-ketoheterocycle class of inhibitors generally are exquisitely selective for FAAH (Boger, D. L.; Miyauchi, H.; et al. J. Med. Chem. 2005, 48, 1849-1856; Leung, D.; Du, W.; et al. Bioorg. Med. Chem. Lett. 2005, 15, 1423-1428; Lichtman, A. H.; Leung, D.; et al. J. Pharmacol. Exp. Ther. 2004, 311, 441-448). However, two enzymes did emerge as potential competitive targets: triacylglycerol hydrolase (TGH) and an uncharacterized membrane-associated hydrolase that lacks known substrates or function (KIAA1363). In this screen, IC50 values are typically higher than the measured Ki values, but the relative potency, the magnitude of binding affinity differences and the rank order binding determined in the assay parallels that established by standard substrate assays. […]

[1] = target: T2, triacylglycerol hydrolase (TGH) (Mus musculus, UniProt Q8VCT4); experiment: Proteome-wide selectivity screening, TGH; assay type: biochemical; details: IC50 based
T2 construct: from tissue
T2 sequence (Q8VCT4 19-565): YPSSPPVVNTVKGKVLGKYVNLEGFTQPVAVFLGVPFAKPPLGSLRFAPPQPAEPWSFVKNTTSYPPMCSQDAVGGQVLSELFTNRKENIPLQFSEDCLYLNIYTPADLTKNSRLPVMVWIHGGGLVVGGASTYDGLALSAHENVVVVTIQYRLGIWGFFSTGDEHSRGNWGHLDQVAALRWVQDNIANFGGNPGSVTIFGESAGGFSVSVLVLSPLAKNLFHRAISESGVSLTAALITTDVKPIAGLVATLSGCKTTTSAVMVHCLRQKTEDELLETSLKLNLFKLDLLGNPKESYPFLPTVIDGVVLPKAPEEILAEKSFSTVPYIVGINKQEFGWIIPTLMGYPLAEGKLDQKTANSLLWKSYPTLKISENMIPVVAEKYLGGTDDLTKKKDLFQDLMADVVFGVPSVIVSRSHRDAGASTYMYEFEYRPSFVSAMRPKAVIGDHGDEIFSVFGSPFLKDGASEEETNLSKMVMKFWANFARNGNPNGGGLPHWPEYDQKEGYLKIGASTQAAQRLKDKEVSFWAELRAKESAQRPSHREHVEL
Description: as §1, §2

Compound | selectivity for FAAH over KIAA1363 (in words) (KIAA1363) | selectivity for FAAH over TGH (in words) [1]
O=C(CCCCCCc1ccccn1)c1ncc(-c2ccccn2)o1 [5e, 1-Oxo-1-[5-(2-pyridyl)oxazol-2-yl]-7-(2-pyridyl)heptane] | very selective | moderately selective
O=C(CCCCCCc1cccnc1)c1ncc(-c2ccccn2)o1 [5f, 1-Oxo-1-[5-(2-pyridyl)oxazol-2-yl]-7-(3-pyridyl)heptane] | very selective | moderately selective
